For this experiment, the target named is T1, HMG-CoA synthase (Rattus norvegicus, UniProt P17425).
T1 construct: The livers from male Charles River CD rats (225-350 g) were homogenized in 0.25M sucrose; from tissue; host or cells: liver of male Charles River CD rats
T1 sequence (P17425 1-520): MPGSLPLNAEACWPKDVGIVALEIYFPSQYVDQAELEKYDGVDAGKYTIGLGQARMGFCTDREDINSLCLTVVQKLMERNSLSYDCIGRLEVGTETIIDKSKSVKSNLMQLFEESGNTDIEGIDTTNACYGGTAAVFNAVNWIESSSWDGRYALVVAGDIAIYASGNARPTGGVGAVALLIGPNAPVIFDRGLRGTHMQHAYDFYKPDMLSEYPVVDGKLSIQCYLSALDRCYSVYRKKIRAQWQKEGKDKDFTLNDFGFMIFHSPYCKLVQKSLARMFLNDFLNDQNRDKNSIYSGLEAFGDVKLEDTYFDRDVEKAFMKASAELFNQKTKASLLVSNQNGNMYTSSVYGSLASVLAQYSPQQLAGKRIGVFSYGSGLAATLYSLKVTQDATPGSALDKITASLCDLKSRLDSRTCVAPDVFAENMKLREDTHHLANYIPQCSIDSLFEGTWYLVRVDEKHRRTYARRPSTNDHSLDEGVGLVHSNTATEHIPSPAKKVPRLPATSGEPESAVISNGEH
The experiment can be described thus: HMG-CoA synthase inhibition assay. The class given is biochemical. To be noted: enzyme from rat liver; 5 min preincubation, 30°, pH 8.0; [14C]-acetyl-CoA. As to the method: The intrinsic HMG--CoA synthase inhibition activity of the compounds of this invention is measured by the standard in vitro protocol described below:
The livers from male Charles River CD rats (225-350 g) were homogenized in 0.25M sucrose which was adjusted with phenylmethylsulfonylfluoride (PMSF) and N-p-tosyl-1-lysine chloromethyl ketone (TLCK) so that the final concentration of each was 50 and 25 μg/ml, respectively. The homogenate was first centrifuged at 700×g for 10 minutes, the supernatant decanted and recentrifuged at 7,700×g for 20 minutes. This supernatant was filtered through a fine nylon screen to remove most of the fat layer and recentrifuged at 100,000×g for 1 hour. This supernatant was removed and 1M potassium phosphate, dithiothreitol (DTT) and ethylene glycolbis(β-aminoethyl ether)-N,N,N',N'-tetraacetic acid (EGTA) added to give a final concentration of 0.1M (pH 7.2), 0.5 mM and 0.1 mM, respectively. Solid ammonium sulfate was added to 50% saturation to the protein solution, it was centrifuged at 15,000×g and the supernatant discarded. This precipitated protein could be stored at -70° C. for at least one month with very little loss of activity. The ammonium sulfate precipitate was dissolved in an minimal amount of 0.06M potassium phosphate buffer (pH 7.2) containing 0.5 mM dithiothreitol and 0.1 mM EGTA (referred to as 0.06M phosphate buffer) and dialyzed overnight against 2 liters of the same buffer to remove the ammonium sulfate and to inactivate HMG--CoA lyase [Clinkenbeard, et al., J. Biol. Chem. 250, 3108-3116 (1975)].
The dialyzed extract was added to a column of DEAE-52 (Whatman) which had been equilibrated with 0.06M phosphate buffer (10 mg of protein to 1 ml bed volume of the resin). The DEAE-cellulose was eluted with 0.06M phosphate buffer until the optical density at 280 nm was essentially zero. This fraction contained the β-ketoacetyl-CoA thiolase activity. The HMG--CoA synthase was eluted from the column with 0.1M KCl in 0.06M phosphate buffer (pH 7.2) containing 0.5 mM DTT and 0.1 mM EGTA, and was virtually free of all thiolase activity. The protein was precipitated by the addition of ammonium sulfate to give 50% saturation. This solution was stirred for 10 minutes at 4° C. and the precipitate collected by centrifugation at 15,000 rpm for 10 minutes. The supernatant was discarded and the precipitate dissolved in a minimum of 0.06M phosphate buffer, pH 7.2 (about 10 ml) and the enzyme stored at -80° C.
HMG-- CoA Synthase Inhibition Assay
Enzyme protein (ca. 12.2 μg) was added to a solution containing 117 mM Tris-HCl (pH 8.0), 11.7 mM MgCl2, 1.17 mM Ethylenediaminetetraacetic acid (EDTA), 0.58 mM dithiothreitol, and the indicated concentrations of the test compound (added as a 2 μg/ml solution in dimethylsulfoxide). The incubation took place in a volume of 0.085 ml at 30° in a shaking water bath. After 5 minutes, 15 μl of a solution containing acetoacetyl-CoA and 0.1 μCi of 1-[^14 C]-acetyl-CoA was added to give a final concentrations of 0.1 and 0.4 mM, respectively. […] Radioactivity was determined in a Packard Tri-Carb liquid scintillation counter. Percent inhibition is calculated by the formula: [formula] IC50 values were determined by plotting the log of the concentration of the test compound verses the percentage inhibition and fitting a straight line to the resulting data by using the least squares method.

The structures appear in SMILES notation. A value given as a limit tells only on which side of the number the result lay.

Drawing on patent US5064856A, “Novel HMG-CoA synthase inhibitors” (Merck & Co., Inc., priority 1989, dated 1991), this text covers IC50 for five compounds.

Take `CC=CCCCCC=CC(=O)NC1CC2(OC1=O)C(O)C1OC1C1OC12` (centres unmarked) [Compound A-1]: the IC50 was above 10000 nM.

As to `CC=CCCCCC=CC(=O)NC1CC2(OC1=O)C(=O)C1OC1C(O)C2O` (centres unmarked) [Compound A-2, N-(4,5-dihydro-4',5'-dihydroxy-2',5-dioxospiro[furan-2(3H),3'-[7]oxabicyclo[4.1.0]-hept]-4-yl)-2,8-decadienamide], the IC50 turned out to be 2500 nM. The figure for `CC=CCCCCC=CC(=O)NC1CC2(OC1=O)C(O)C1OC1C1OC12` (centres unmarked) [Compound A] is 6900 nM. Then `CC=CCCCCC=CC(=O)NC(CC1(O)C(=O)C2OC2C2OC21)C(=O)OC` (stereo not drawn) [Compound B, 3,8-Dioxatricyclo(5.1.0.0^2,^4)octane-5-propanoic acid, 5-hydroxy-6-oxo-α-((1-oxo-2,8-decadienyl)amino)-, methyl ester], with 180 nM; and `CC=CCCCCC=CC(=O)NC1CC2(OC1=O)C(=O)C1OC1C1OC12` (centres unmarked) [Compound C], with 360 nM.
